The subject of the assay is HiBiT-HSD17β13 fusion protein (N-terminal HiBiT-tagged HSD17β13 isoform D) in Huh7 HiBiT-HSD17β13 OE cells. The assay can be described thus: Whole-cell Huh7-HSD17B13 HiBiT assay (degrader potency and maximal efficacy, luminescence readout). Format: cell-based, human. As to conditions: 24 hour incubation, geometric mean, * = geometric mean for all forms tested (parent and salt forms); for DC50: read-out: Huh7_HIBIT-HSD17β13_DC50 GMean DC50; for Huh7_HIBIT-HSD17β13_DC50 GMean Asymptote Maximum: max. concentration 1 μM. As to the method:
Degrader potency and maximal efficacy of test compounds were determined using a whole-cell Huh7-HSD17B13 HiBiT assay, utilizing a luminescence readout. A HiBiT tag was fused to the N-terminus of HSD17β13, and therefore the HiBiT luminescence signal produced in the assay was proportional to the level of HiBiT-HSD17β13 fusion protein in a sample.
A Huh7 HiBiT-HSD17β13 OE cell line was generated using electroporation with an N-terminal HiBiT-tagged HSD17β13 isoform D overexpression plasmid, followed by geneticin selection to produce a stable pool. Clones were created with varying HiBiT signals to optimize HiBiT HSD17 β13 ratios. A clone with similar HSD17β13 expression levels as human primary hepatocytes was selected for the compound screen.
Greiner 384-well white opaque, flat bottom, tissue culture treated plates (Greiner #781080) were used for both HiBiT and CTG assays. The treated plates were spotted with 25 nL of a compound which had been serial diluted 1 in 3.162 in 100% DMSO for an 11-point concentration response curve, with duplicate points at each concentration. The maximum concentration of the compounds was 1 mM, which was later diluted with cell suspension for a maximum concentration of 1 μM). High percentage effect (HPE) wells and zero percentage effect (ZPE) wells located in columns 1 and 24 were spotted with 25 nL of DMSO (Sigma #D2650) using an ECHO Acoustic Liquid Handler (Labcyte Echo 550 Series). Each plate was performed in duplicate.
The Huh7 HiBiT-HSD17β13 OE cells were plated on top of a compound or a DMSO control at 3,000 viable cells/well in 25 μL growth media (DMEM (Gibco #10569), 10% FBS HI (Gibco #16140), 1× Pen/Strep (Gibco #15070), 1×MEM Non-Essential Amino Acids (Gibco #11140), and 300 μg/mL Geneticin (Gibco #10131) in columns 2-24 of the plates. Huh7 parental cells were plated using the same parameters in column 1 (HPE) in the same culture medium, excluding Geneticin selection. Cells were incubated overnight with the compounds for 24 hours (with lid) at 37° C. ([…]).
Each assay was conducted after a 24 hour incubation period. In the HiBiT assay plates, 25 μL of complete Nano-Glo HiBiT Lytic detection system (Promega #PRN3040), consisting of HiBiT Lytic Buffer with the addition of 1:100 LgBiT Protein and 1:50 Substrate, was added to each well. In CTG counter screen plates, 25 μL of Cell Titer-Glo Luminescent Reagent (Promega #G7573) was added to each well. Both plates were centrifuged for 2 minutes at 1000 rpm and incubated at room temperature, in the dark, for 10 minutes. Then Luminescence was read using an EnVision Plate Reader (Perkin Elmer PE2103).
The raw data from the Envision Plate Reader was expressed as relative luminescence units (RLUs) for each well of the assay plates. Using HPE and ZPE controls, the % effect was calculated for each sample well as follows: Percent effect=[(sample RLU−HPE RLU)\(ZPE RLU−HPE RLU)]*100. The percent effect was plotted versus the compound concentration and a 50% degradation ([…]) was determined using a four-parameter logistic dose response equation. The raw data was analyzed using ABase (IDBS).
(The HiBiT peptide binds its large partner to form an active luciferase.)

Data on 11 molecules can be found in patent publication US20240238425A1, “HSD17B13 Inhibitors and/or Degraders” (Pfizer Inc., priority 2022, published 2024).

Where a name gives a salt, the structure may show the parent alone.

Consider `Cn1c(=O)n(C2CCC(=O)NC2=O)c2ccc(CCCN3CCc4ccc(-c5ccc6cn([C@H]7CC[C@H](CNC(=O)c8cc(F)c(O)c(F)c8F)CC7)nc6c5)cc4C3)cc21` (mixture of isomers) [Example 32, N-{[(1r,4r)-4-{6-[2-(3-{1-[(3RS)-2,6-dioxopiperidin-3-yl]-3-methyl-2-oxo-2,3-dihydro-1H-benzimidazol-5-yl}propyl)-1,2,3,4-tetrahydroisoquinolin-7-yl]-2H-indazol-2-yl}cyclohexyl]methyl}-2,3,5-trifluoro-4-hydroxybenzamide, trifluoroacetate salt], for which the DC50 (usually the midpoint of the concentration-degradation curve) amounted to 0.3 nM and the “Huh7_HIBIT-HSD17β13_DC50 GMean Asymptote Maximum” value amounted to 83%.

Take `Cn1c(=O)n(C2CCC(=O)NC2=O)c2ccc(CCCN3CC(n4cc(-c5ccc6cn([C@H]7CC[C@H](CNC(=O)c8cc(F)c(O)c(F)c8F)CC7)nc6c5)cn4)C3)cc21` (mixture of isomers) [Example 33, N-{[(1r,4r)-4-(6-{1-[1-(3-{1-[(3RS)-2,6-dioxopiperidin-3-yl]-3-methyl-2-oxo-2,3-dihydro-1H-benzimidazol-5-yl}propyl)azetidin-3-yl]-1H-pyrazol-4-yl}-2H-indazol-2-yl)cyclohexyl]methyl}-2,3,5-trifluoro-4-hydroxybenzamide]: the 50% degradation concentration (DC50) was determined as 0.62 nM and the “Huh7_HIBIT-HSD17β13_DC50 GMean Asymptote Maximum” value is reported as 86%.

Consider `Cn1c(=O)n(C2CCC(=O)NC2=O)c2ccc(CCCN3CCc4cc(-c5ccc6cn([C@H]7CC[C@H](CNC(=O)c8cc(F)c(O)c(F)c8F)CC7)nc6c5)ccc4C3)cc21` (mixture of isomers) [Example 34, N-{[(1r,4r)-4-{6-[2-(3-{1-[(3RS)-2,6-dioxopiperidin-3-yl]-3-methyl-2-oxo-2,3-dihydro-1H-benzimidazol-5-yl}propyl)-1,2,3,4-tetrahydroisoquinolin-6-yl]-2H-indazol-2-yl}cyclohexyl]methyl}-2,3,5-trifluoro-4-hydroxybenzamide, trifluoroacetate salt], for which the DC50 was found to be 0.23 nM and the “Huh7_HIBIT-HSD17β13_DC50 GMean Asymptote Maximum” value was 81%.

Regarding `O=C1CCC(N2Cc3c(OCc4ccc(CN5CCC(CCCOc6ccc(-c7noc([C@]89CC[C@](CNC(=O)c%10cc(F)c(O)c(F)c%10F)(CC8)CC9)n7)nn6)CC5)cc4)cccc3C2=O)C(=O)N1` (mixture of isomers) [Example 36, N-({4-[3-(6-{3-[1-({4-[{{2-[(3RS)-2,6-dioxopiperidin-3-yl]-1-oxo-2,3-dihydro-1H-isoindol-4-yl}oxy)methyl]phenyl}methyl)piperi-din-4-yl]propoxy}pyridazin-3-yl)-1,2,4-oxadiazol-5-yl]bicyclo[2.2.2]octan-1-yl}methyl)-2,3,5-trifluoro-4-hydroxybenzamide, trifluoroacetate salt], the 50% degradation concentration (DC50) was 2.2 nM and the “Huh7_HIBIT-HSD17β13_DC50 GMean Asymptote Maximum” value amounted to 86%.

`O=C1CCC(N2Cc3c(OCc4ccc(CN5CCC(CCCOc6ccc(-c7noc([C@]89CC[C@](CNC(=O)c%10cc(F)c(O)c(F)c%10)(CC8)CC9)n7)nn6)CC5)cc4)cccc3C2=O)C(=O)N1` (mixture of isomers) [Example 37, N-({4-[3-(6-{3-[1-({4-[({2-[(3RS)-2,6-dioxopiperidin-3-yl]-1-oxo-2,3-dihydro-1H-isoindol-4-yl}oxy)methyl]phenyl}methyl)piperi-din-4-yl]propoxy}pyridazin-3-yl)-1,2,4-oxadiazol-5-yl]bicyclo[2.2.2]octan-1-yl}methyl)-3,5-difluoro-4-hydroxybenzamide, trifluoroacetate salt]: the 50% degradation concentration (DC50) was 2 nM and the “Huh7_HIBIT-HSD17β13_DC50 GMean Asymptote Maximum” value was 85%.

As for `Cn1c(=O)n(C2CCC(=O)NC2=O)c2ccc(CCCCNc3ncc(-c4ccc5cn([C@H]6CC[C@H](CNC(=O)c7cc(F)c(O)c(F)c7F)CC6)nc5c4)cn3)cc21` (mixture of isomers) [Example 38, N-{[(1r,4r)-4-(6-{2-[(4-{1-[(3RS)-2,6-dioxopiperidin-3-yl]-3-methyl-2-oxo-2,3-dihydro-1H-benzimidazol-5-yl}butyl)amino]pyrimidin-5-yl}-2H-indazol-2-yl)cyclohexyl]methyl}-2,3,5-trifluoro-4-hydroxybenzamide], the DC50 was 2.6 nM and the “Huh7_HIBIT-HSD17β13_DC50 GMean Asymptote Maximum” value amounted to 79%.

For the molecule `Cn1c(=O)n(C2CCC(=O)NC2=O)c2ccc(CCCCCC(=O)N3CCN(c4ccc5cn([C@H]6CC[C@H](CNC(=O)c7cc(F)c(O)c(F)c7F)CC6)nc5c4)CC3)cc21` (mixture of isomers) [Example 39, N-{[(1r,4r)-4-{6-[4-(6-{1-[(3RS)-2,6-dioxopiperidin-3-yl]-3-methyl-2-oxo-2,3-dihydro-1H-benzimidazol-5-yl}hexanoyl)piperazin-1-yl]-2H-indazol-2-yl}cyclohexyl]methyl}-2,3,5-trifluoro-4-hydroxybenzamide, trifluoroacetate salt], the 50% degradation concentration (DC50) stood at 1.1 nM and the “Huh7_HIBIT-HSD17β13_DC50 GMean Asymptote Maximum” value amounted to 86%.

For the molecule `Cn1c(=O)n(C2CCC(=O)NC2=O)c2ccc(CCC3CN(c4ncc(-c5ccc6cn([C@H]7CC[C@H](CNC(=O)c8cc(F)c(O)c(F)c8F)CC7)nc6c5)cn4)C3)cc21` (mixture of isomers) [Example 41, N-{[(1r,4r)-4-(6-{2-[3-(2-{1-[(3RS)-2,6-dioxopiperidin-3-yl]-3-methyl-2-oxo-2,3-dihydro-1H-benzimidazol-5-yl}ethyl)azetidin-1-yl]pyrimidin-5-yl}-2H-indazol-2-yl)cyclohexyl]methyl}-2,3,5-trifluoro-4-hydroxybenzamide], the DC50 worked out at 0.86 nM and the “Huh7_HIBIT-HSD17β13_DC50 GMean Asymptote Maximum” value was determined as 81%.

Consider `Cn1c(=O)n(C2CCC(=O)NC2=O)c2ccc(CCN3CCN(c4ncc(-c5ccc6cn([C@H]7CC[C@H](CNC(=O)c8cc(F)c(O)c(F)c8F)CC7)nc6c5)cn4)CC3)cc21` (mixture of isomers) [Example 43, N-{[(1r,4r)-4-(6-{2-[4-(2-{1-[(3RS)-2,6-dioxopiperidin-3-yl]-3-methyl-2-oxo-2,3-dihydro-1H-benzimidazol-5-yl}ethyl)piperazin-1-yl]pyrimidin-5-yl}-2H-indazol-2-yl)cyclohexyl]methyl}-2,3,5-trifluoro-4-hydroxybenzamide, trifluoroacetate salt], for which the DC50 is 0.29 nM and the “Huh7_HIBIT-HSD17β13_DC50 GMean Asymptote Maximum” value worked out at 83%.

For `Cn1c(=O)n(C2CCC(=O)NC2=O)c2ccc(CCN3CCC(F)(Cc4ccc5cn([C@H]6CC[C@H](CNC(=O)c7cc(F)c(O)c(F)c7F)CC6)nc5c4)CC3)cc21` (mixture of isomers) [Example 44, N-{[(1r,4r)-4-(6-{[1-(2-{1-[(3RS)-2,6-dioxopiperidin-3-yl]-3-methyl-2-oxo-2,3-dihydro-1H-benzimidazol-5-yl}ethyl)-4-fluoropiperidin-4-yl]methyl}-2H-indazol-2-yl)cyclohexyl]methyl}-2,3,5-trifluoro-4-hydroxybenzamide, trifluoroacetate salt], the DC50 was 1.5 nM and the “Huh7_HIBIT-HSD17β13_DC50 GMean Asymptote Maximum” value is 84%.

`Cn1c(=O)n(C2CCC(=O)NC2=O)c2ccc(CC3CCN(c4ncc(-c5ccc6cn([C@H]7CC[C@H](CNC(=O)c8cc(F)c(O)c(F)c8F)CC7)nc6c5)cn4)CC3)cc21` (mixture of isomers) [Example 46, N-{[(1r,4r)-4-(6-{2-[4-({1-[(3RS)-2,6-dioxopiperidin-3-yl]-3-methyl-2-oxo-2,3-dihydro-1H-benzimidazol-5-yl}methyl)piperidin-1-yl]pyrimidin-5-yl}-2H-indazol-2-yl)cyclohexyl]methyl}-2,3,5-trifluoro-4-hydroxybenzamide, trifluoroacetate salt]: the DC50 is 0.57 nM and the “Huh7_HIBIT-HSD17β13_DC50 GMean Asymptote Maximum” value worked out at 84%.
